Results from BindingDB's records for doi:10.1016/s0960-894x(03)00663-2 (Universidad De Buenos Aires, 2003).

How the values were obtained:
[1] = molecular target: Farnesyl pyrophosphate synthase (Trypanosoma cruzi); assay: Inhibition of Trypanosoma cruzi farnesyl pyrophosphate synthase
[2] = Binding affinity towards Trypanosoma cruzi farnesyl pyrophosphate synthase (TcFPPS)
[3] = molecular target: Farnesyl pyrophosphate synthase (Trypanosoma cruzi); assay: as above
[4] = as above; remark: listed apart in the source

Compound	IC50 [1] [µM]	Ki [2] [µM]	Ki [3] [µM]	Ki [4] [µM]
CCCC(P(=O)(O)O)P(=O)(O)O [(1-Phosphono-butyl)-phosphonic acid]	150	17	–	–
CCCCCCC(P(=O)(O)O)P(=O)(O)O [(1-Phosphono-heptyl)-phosphonic acid]	4.54	–	0.54	–
CCCCCC(P(=O)(O)O)P(=O)(O)O [(1-Phosphono-hexyl)-phosphonic acid]	5.67	–	–	0.47
CCCCCCCCC(P(=O)(O)O)P(=O)(O)O [(1-Phosphono-nonyl)-phosphonic acid]	4.25	–	0.31	–
CCCCCCCC(P(=O)(O)O)P(=O)(O)O [(1-Phosphono-octyl)-phosphonic acid]	19.7	–	1.88	–
CCCCC(P(=O)(O)O)P(=O)(O)O [(1-Phosphono-pentyl)-phosphonic acid]	5.71	0.79	–	–
CCC(P(=O)(O)O)P(=O)(O)O [(1-Phosphono-propyl)-phosphonic acid]	> 100	–	–	–
